92 molecules from PubChem BioAssay AID1322 (NMMLSC, 2008) can be followed below.

Activity calls are given as the source filed them. The rule behind the calls is not given here.

The target in one experiment is Bcl-2-like protein 1 (Homo sapiens) (UniProt Q07817). Kind of experiment: Bim-Bcl-XL interaction inhibitors, potency, dose response, biochemical, multiplexed, bead flow cytometry, human Bcl-XL (AID 1322). For inhibition: test concentration not given here. Particulars: Bead-based flow cytometry, Bim peptide-Bcl-XL binding, MCF.
Sequence of Bcl-2-like protein 1 (Homo sapiens) (Q07817 whole entry, looked up): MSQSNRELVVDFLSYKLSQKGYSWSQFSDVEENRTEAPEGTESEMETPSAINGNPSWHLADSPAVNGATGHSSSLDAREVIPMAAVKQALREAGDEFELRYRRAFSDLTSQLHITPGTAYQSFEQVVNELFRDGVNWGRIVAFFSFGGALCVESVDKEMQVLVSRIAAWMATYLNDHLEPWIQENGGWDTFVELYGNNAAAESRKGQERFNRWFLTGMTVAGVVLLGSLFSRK
As for `CN=C(NC1CCCCC1)c1ccc(Cl)cc1`, the result was inactive.

Regarding `COc1ccc(-c2csc(NC(=O)/C(N=Nc3ccccc3)=C(\C)O)n2)cc1`, the result was inactive.

With `CN(Cc1cccs1)C(=O)CCc1c[nH]c2ccccc12`, the outcome was inactive.

With `CC(=O)Nc1ccc2nc(CN3CCN(CC(C)C)C(CCO)C3)ccc2c1` (configuration not stated), the outcome was inactive.

For the molecule `Cc1ccc(Nc2nc(C)cs2)cc1`, the result was inactive.

Regarding `CS(=O)(=O)NN1C(=O)c2ccccc2NC1c1ccccc1` (configuration not stated), the outcome was inactive.

For the molecule `CCN(CC)C(=O)COC(=O)c1cc(-c2ccco2)nc2ccccc12`, the result was inactive.

Take `CCc1cccc(CC)c1NC(=S)N1CCn2cccc2C1c1cccnc1` (configuration not stated): the outcome was inactive.

Turning to `O=C(Cc1ccccc1)N/N=C/c1cccn1-c1ccc([N+](=O)[O-])cc1`, the outcome was inactive.

For `Cc1ccc(NN2C(=O)C=CC2=O)cc1`, the outcome was inactive.

As to `CC1Nc2ccccc2C(=O)N1NS(=O)(=O)c1ccccc1` (configuration not stated), the outcome was inactive.

In the case of `FC(F)(F)c1ccc2c(c1)C1C=CCC1C(c1ccncc1)N2` (configuration not stated), the result was inactive.

Take `COc1cccc(/C=N/Nc2nn3cnnc3c3ccccc23)c1O`: the EC50 result is “inactive”.

As to `CN(C)C(Cc1ccccc1)C(=O)c1cccs1` (configuration not stated), the result was inactive.

Regarding `CNCc1ccccc1Sc1cc(O)ccc1O`, the outcome was inactive.

As to `Cc1cc(N2CCN(C)CC2)nc2ccc(NC(=S)N3CCC4(CC3)OCCO4)cc12`, the result was inactive.

For the molecule `Fc1cccc(Nc2nc(-c3ccncc3)nc3ccccc23)c1`, the outcome was inactive.

Consider `COc1cc(/C=N/Nc2nn3cnnc3c3ccccc23)ccc1O`, for which the EC50 entry is “inactive”.

On to `O=C(c1cnccn1)N(Cc1cccs1)C1(C(=O)NC2CCCCC2)CCCCC1`, for which the outcome was inactive.

Take `COC(=O)c1[nH]c2ccccc2c1NC(=O)c1ccccc1[N+](=O)[O-]`: the result was inactive.

The same experiment, now with this note: Bead-based flow cytometry, Bim peptide-Bcl-XL binding, MCF.
With `Cn1c(OCc2cccnc2)nc2c1c(=O)n(Cc1ccccc1)c(=O)n2C`, the inhibition entry is “inactive”.

Consider `Cc1c(NC2=C(Cl)C(=O)N(c3ccccc3)C2=O)c(=O)n(-c2ccccc2)n1C`, for which the inhibition entry was “inactive”.

As for `CCSc1ncc(Cl)c(C(=O)Nc2sc3c(c2C(=O)NCc2cccnc2)CCCC3)n1`, the inhibition result is “inactive”.

Take `N#Cc1cc(-c2ccccc2)nn1-c1ccccc1`: the inhibition entry is “inactive”.

For the molecule `CCOC(=O)c1sc(NC(=O)c2ccncc2)c(C#N)c1C`, the inhibition entry is “inactive”.

As for `Cc1c(NC2=C(Cl)C(=O)N(c3ccccc3Cl)C2=O)c(=O)n(-c2ccccc2)n1C`, the inhibition entry was “inactive”.

Regarding `CCOc1ccc(N2C(=O)C(Cl)=C(Nc3ccccc3O)C2=O)cc1`, the inhibition result is “inactive”.

For `Cc1cccc(/C=N/N(CCO)C2=NS(=O)(=O)c3ccccc32)c1`, the inhibition result was “inactive”.

With `CCOC(=O)C1=C(Cc2ccc(C)cc2)C(=O)c2ccccc2C1=O`, the inhibition entry is “inactive”.

For `CCOC(=O)/C(=C\c1cccc(O)c1)c1nc2sc(C)c(C)c2c(=O)[nH]1`, the inhibition entry was “inactive”.

Regarding `Fc1ccccc1-n1cc(-c2ccccc2)[nH]c1=S`, the inhibition entry was “inactive”.

For `Cc1onc(-c2ccccc2Cl)c1C(=O)Nc1nn[nH]n1`, the inhibition entry is “inactive”.

As for `COc1cc(CNc2ccc3[nH]c(=O)[nH]c3c2)cc(Br)c1OCC(=O)NC(C)(C)C`, the inhibition result is “inactive”.

In the case of `O=S1(=O)N=C(N(CCO)/N=C/c2ccccc2)c2ccccc21`, the inhibition result is “inactive”.

As to `O=C(/C=C/c1ccc(-c2ccccc2[N+](=O)[O-])o1)c1ccccc1`, the inhibition result is “inactive”.

Take `CCCCC(=O)Nc1ccc(C(=O)N2CCC(C(=O)OCC)CC2)cc1`: the inhibition entry was “inactive”.

As for `Cc1ccc(C(=O)CCC(=O)Nc2ccc(Cl)c(S(=O)(=O)Nc3cccc(Cl)c3)c2)cc1`, the inhibition result is “inactive”.

For `Cn1c(CNc2nc(-c3ccccc3)cs2)nnc1SCC(=O)N1CCc2ccccc21`, the inhibition entry is “inactive”.

On to `CCNC(=S)Nc1cc(OCC)c(NC(=O)c2cccs2)cc1OCC`, for which the inhibition entry was “inactive”.

As for `CC(C)c1ccc(/C=N/NC(=O)c2ccccc2Cl)cc1`, the inhibition result was “inactive”.

Regarding `Cc1cccc(N2CCN(C(=S)Nc3ccc4nc(N5CCN(C)CC5)cc(C)c4c3)CC2)c1C`, the inhibition result was “inactive”.

On to `CC(C)(C)C(=O)NC(NC(=S)Nc1ccc(S(N)(=O)=O)cc1)C(Cl)(Cl)Cl` (configuration not stated), for which the inhibition entry was “inactive”.

Consider `COc1ccc(N2CC(C(=O)Nc3nnc(SCC(=O)c4ccccc4)s3)CC2=O)cc1` (configuration not stated), for which the inhibition result was “inactive”.

Turning to `O=C(NCCO)c1ccc2nc(-c3ccco3)c(-c3ccco3)nc2c1`, the inhibition result is “inactive”.

For the molecule `O=C(NC1=C(Nc2ccc(F)cc2)C(=O)c2ccccc2C1=O)c1ccc(Cl)cc1`, the inhibition result is “inactive”.

Regarding `O=C(Nc1n[nH]c(C(F)(F)F)n1)C1CC1`, the inhibition result is “inactive”.

As to `COc1ccc(Cc2c(O)nc(SC)n(C(C)=O)c2=O)cc1`, the inhibition entry is “inactive”.

With `Cc1cc(C)c[n+](-c2nc3ccccc3nc2C(=C=[N-])C#N)c1`, the inhibition result was “inactive”.

Regarding `O=C(NCc1ccco1)C1CC2CCC1C2` (configuration not stated), the inhibition result is “inactive”.

For the molecule `CCCn1c(N2CCN(C)CC2)nc2c1c(=O)[nH]c(=O)n2C`, the inhibition result is “inactive”.

On to `COCCN=c1scc(-c2cccs2)n1/N=C/c1ccc(O)c(O)c1O`, for which the inhibition entry is “inactive”.

In the case of `Cc1ccc(-c2c3c([nH]c(=S)c2C#N)CCCC3)o1`, the inhibition result was “inactive”.

Consider `COc1ccc(-n2c(SCC(=O)Nc3ccc(C(=O)O)cc3)nnc2-c2cccs2)cc1`, for which the inhibition entry was “inactive”.

For the molecule `Clc1ccc2c(N/N=C/c3ccccc3Br)ccnc2c1`, the inhibition entry was “inactive”.

As to `COc1ccc(NC(=O)c2ccc(CN3CCN(c4ccccc4)CC3)cc2)cc1`, the inhibition result was “inactive”.

Turning to `CC(=O)NC(=O)Nc1sc(=S)n(C)c1C`, the inhibition result was “inactive”.

As to `O=C(Nc1ccc2nc(-c3ccco3)c(-c3ccco3)nc2c1)NC1CC1`, the inhibition result was “inactive”.

With `CCN(CC)c1ccc(-c2nn3c(-c4ccccc4OC)nnc3s2)cc1`, the inhibition result was “inactive”.

On to `CCn1c(C)c(/C=N/Nc2nc3ccccc3s2)c2ccccc21`, for which the inhibition result is “inactive”.

Take `Cc1cc(Cl)c(S(=O)(=O)NCC2CCCO2)cc1OCC(N)=O` (configuration not stated): the inhibition result is “inactive”.

For `COc1ccc(C(=O)Nc2ccc(NC(=O)c3cccs3)cc2)cc1Cl`, the inhibition result is “inactive”.

Consider `O=C(Nc1ccccc1)Nc1ccc2ncoc2c1`, for which the inhibition entry was “inactive”.

As to `CCCn1c(SCC(=O)Nc2ccccc2-c2ccccc2)nnc1-c1ccoc1C`, the inhibition entry was “inactive”.

For the molecule `CC(C)(C)NC(=O)COc1ccc(CNc2ccc3[nH]c(=O)[nH]c3c2)cc1`, the inhibition entry is “inactive”.

On to `O=C1NC(=O)C2(Cc3c(nc4ccccn4c3=O)N3CCCCCC32)C(=O)N1Cc1ccccc1` (configuration not stated), for which the inhibition result was “inactive”.

On to `COC(=O)CCC(=O)Nc1sc(C)c(C)c1C(N)=O`, for which the inhibition result is “inactive”.

As to `CN(Cc1ccccc1)c1nc2c(c(=O)[nH]c(=O)n2C)n1C`, the inhibition result is “inactive”.

For the molecule `CCc1cccc(NC(=O)COc2ccccc2)c1`, the inhibition entry was “inactive”.

On to `O=C(NCCc1ccccc1)c1ccc2nc(-c3ccco3)c(-c3ccco3)nc2c1`, for which the inhibition result is “inactive”.

As to `Cc1ccc(NC(=O)CC2S/C(=N/N=C/c3c[nH]c4ccccc34)NC2=O)cc1` (configuration not stated), the inhibition entry was “inactive”.

As for `CN(CCCOc1ccccc1Br)Cc1ccccc1`, the inhibition entry was “inactive”.

With `CCOc1c(Cl)cc(CNc2ccc(N3CCCC3)cc2)cc1OC`, the inhibition entry is “inactive”.

As to `Cn1c(N)c(C(=O)COC(=O)c2cc(-c3ccco3)nc3ccccc23)c(=O)n(Cc2ccccc2)c1=O`, the inhibition entry was “inactive”.

On to `CC1(C(=O)N(CC(=O)NC2CCCC2)Cc2ccco2)CC(=O)N=C2C=CC=CN21` (configuration not stated), for which the inhibition entry is “inactive”.

`COc1cccc(/C=C2/SC(=O)N(C)C2=O)c1OCc1ccc(C(=O)O)cc1`: the inhibition result is “inactive”.

On to `Cc1cnnn1-c1ccc(C(=O)CCl)cc1`, for which the inhibition result was “inactive”.

`CCN(CC)c1ccc(Nc2nc(N3CCOCC3)c3ccccc3n2)cc1`: the inhibition entry was “inactive”.

Turning to `Cc1ccc(/C=C2\CCCC3=C2NC(=S)NC3c2ccc(C)cc2)cc1` (configuration not stated), the inhibition entry was “inactive”.

As for `O=C(O)CC/C(=C\c1cc([N+](=O)[O-])ccc1Cl)c1nc2ccccc2s1`, the inhibition result is “inactive”.

With `CCn1c(SCC(=O)Nc2ccc(C)cc2)nnc1-c1ccc(O)cc1`, the inhibition result was “inactive”.

Regarding `Cc1cc(-c2nn(-c3ccccc3)cc2/C=C2\SC(N)=NC2=O)ccc1OC(C)C`, the inhibition result is “inactive”.

Regarding `COc1ccc(COC(=O)NNC(=O)c2ccccc2Cl)cc1`, the inhibition entry was “inactive”.

As to `Cc1cccc(C(=O)N2CCC(c3nc(-c4ccc(S(=O)(=O)N5CCOCC5)cc4)no3)CC2)c1`, the inhibition entry was “inactive”.

Turning to `COc1ccc(/C=C(/C(=O)c2cccs2)N2C=CC=CC2=C(C#N)C#N)cc1`, the inhibition result is “inactive”.

For `Cc1cc(N)ccc1N1CCCC1`, the inhibition entry is “inactive”.

Regarding `N#Cc1ccc(N=c2ssnc2Cl)cc1`, the inhibition entry is “inactive”.

Take `COc1cc(OC)c([N+](=O)[O-])cc1/C=N/NC(=O)c1ccncc1`: the inhibition result is “inactive”.

Consider `CC(C)(C)C1CCC(=NNC(=O)c2cc3c(s2)CCCC3)CC1` (configuration not stated), for which the inhibition result was “inactive”.

Turning to `CCN(CC)c1ccc(NC(=O)COc2ccccc2C)cc1S(=O)(=O)Nc1ccccc1OC`, the inhibition entry is “inactive”.

For `Cc1ccc(/C=C/C(=O)Nc2ccc([N+](=O)[O-])c(NC(=O)/C=C/c3ccc(C)o3)c2)o1`, the inhibition entry is “inactive”.

For the molecule `CC(=O)OCCCNc1cc(Sc2nc3ccccc3s2)c2nonc2c1[N+](=O)[O-]`, the inhibition result was “inactive”.

On to `Cc1ccc(/C=C/C(=O)c2ccccc(=O)c2O)c(C)c1`, for which the inhibition entry is “inactive”.
